{"source": "patent US20170210704A1", "about": "“DEUTERO-PHENFORMIN DERIVATIVES” (Enlibrium Inc, priority 2016, published 2017)", "origin": "cited, not measured here", "key": {"cytochrome P450 2D6": {"test_system": "cytochrome P450 2D6", "details": "2D6 polymorphisms in humans; essentially no metabolism in poor metabolizers"}, "[1]": {"details": "patients treated for type 2 diabetes"}}, "data": [{"smiles": "[H]/N=C(/N)N/C(=N/[H])NCCc1ccccc1", "note": "[phenformin, Phenformin]", "values": [{"measurement": "metabolism in ultrarapid metabolizers relative to poor metabolizers", "setting": "cytochrome P450 2D6", "result": 200, "unit": "fold"}, {"measurement": "risk of lactic acidosis", "setting": "[1]", "result": "0.6 events per 1,000 patient years"}]}, {"smiles": "CN(C)C(=N)N=C(N)N", "note": "[metformin, Metformin]", "values": [{"measurement": "risk of lactic acidosis", "setting": "[1]", "result": "0.1 events per 1,000 patient years"}]}]}
